Earlier results as cited in patent publication US9974792B2, “Methods for treating cancers” (Gilead Sciences, Inc., priority 2013, dated 2018).

Tests used:
CLL subjects = details: rituximab monotherapy; CLL subjects with similar median age and prior therapies; cited from earlier work
[1] = test system: subjects with B-cell malignancies, CLL/SLL; details: cited from earlier work

Molecule | 24-week PFS (CLL subjects) | PFS ([1]; 11 subjects with CLL/SLL) | overall progression-free survival (PFS) ([1]; participants treated in the phase 2 portion of the study) | Response rate ([1]; six subjects with partial lymph-node reduction of at least 50%)
rituximab: monoclonal antibody (anti-CD20), monotherapy comparator in CLL subjects | 46% |  |  | 
COc1cc(Nc2ncc(F)c(Nc3ccc4c(n3)N(COP(=O)(O)O)C(=O)C(C)(C)O4)n2)cc(OC)c1OC [fostamatinib] |  | 6.4 months | 18 weeks | 54.5%
